{
  "source": "patent US7189691B2",
  "about": "“Methods and compositions for treating leukemia” (The Administrators of the Tulane Educational Fund, priority 2004, dated 2007)",
  "key": {"AF4-AF9 interaction": {"molecular_target": "T1, AF4-AF9 interaction (Homo sapiens, UniProt P42568)", "T1 construct": "made in house; host or cells: GST-AF4 from E. coli; AF9 by coupled in vitro transcription/translation (Promega)", "T1 sequence (P42568 211-568)": "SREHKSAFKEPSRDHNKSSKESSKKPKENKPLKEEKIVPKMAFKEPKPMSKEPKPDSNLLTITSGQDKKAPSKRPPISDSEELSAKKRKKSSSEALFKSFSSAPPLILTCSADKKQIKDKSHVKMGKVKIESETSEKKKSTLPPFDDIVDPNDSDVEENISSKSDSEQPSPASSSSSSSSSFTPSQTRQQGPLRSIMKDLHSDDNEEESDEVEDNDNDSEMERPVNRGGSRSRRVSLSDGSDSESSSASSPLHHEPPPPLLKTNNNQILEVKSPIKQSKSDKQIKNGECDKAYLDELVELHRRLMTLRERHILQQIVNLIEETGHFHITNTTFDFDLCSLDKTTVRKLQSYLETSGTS", "assay": "GST pull-down assay, GST-AF4(749-775) and biotinylated AF9", "type": "binding", "experimental": "To determine if the synthetic peptide could disrupt the AF4-AF9 interaction in vitro, and to determine if the peptide disrupted other binding events with AF9, the following assay was performed. In additional to AF4, the carboxy-terminus of AF9 binds at least two other proteins, the Polycomb protein MPc3 and mBCoR, the mouse homolog of the human BCL-6 corepressor protein (Srinivasan 2003 and Hemenway 2001, both cited above). Using a yeast three hybrid assay similar to that described in Example 1, it was previously shown that mBCoR and FMR2 (an AF4 homolog) can simultaneously bind AF9. […] The sequences of human AF4 and AF9 and murine MPc3 and BCoR can be found in the NCBI database under Accession Nos. P51825, P42568, Q9QXV1, and AAN85318, respectively, incorporated by reference herein.\nRecombinant proteins consisting of glutathione-S-transferase (GST) fused to either (a) amino acids 749–775 of human AF4 SEQ ID NO: 107, (b) amino acids 202–362 of MPc3 SEQ ID NO: 108 or (c) amino acids 925–1759 of mBCoR SEQ ID NO: 109 were isolated from E. coli. These fusion proteins were immobilized on 50 μl glutathione agarose matrix. (i.e., glutathione Sepharose™ beads). Biotinylated AF9 was synthesized by coupled in vitro transcription and translation (Promega) of a Hind III restriction fragment of human AF9 cDNA. This fragment encodes the C-terminal 368 aa of AF9 SEQ ID NO: 114.\nBinding of biotinylated AF9 was performed as previously described (Srinivasan, R. S., et al., 2003, cited above; Hemenway, C. S., et al., Oncogene 2001 20: 3798–3805). Briefly, 25 μl of crude AF4 protein extract was immobilized on glutathione coated 96 well plates (Sigma) followed by extensive washing with TBS containing 0.05% Tween (TBST). […]\nAfter extensive washing with TBST, proteins were resolved by SDS-PAGE and transferred to nitrocellulose. […] Alkaline phosphatase activity was measured by determining the optical density of the samples at 405 nm with a plate spectrophotometer. […]"}, "[1]": {"test_system": "hematopoietic progenitor cells (peripheral blood stem cells)", "assay": "Methylcellulose clonogenic assay", "type": "cell-based, human", "settings": "100 μg/ml, 72 h incubation; FIG. 4A", "from_the_text": "PFWT is toxic to several leukemia cell lines raising the possibility that normal hematopoietic cells are also sensitive to the peptide. To verify whether PFWT has any effect on hematopoietic stem cells, standard methylcellulose-based assays were employed to enumerate the colony-forming potential of human peripheral blood and bone marrow stem cells.\nCryopreserved bone marrow and peripheral blood hematopoietic progenitor cells from healthy donors were thawed and diluted with M199 media (Invitrogen) to give a final DMSO concentration of 0.1%. Cells were incubated at room temperature for 2 h for equilibration. Nucleated cells at a concentration of 5×10^5 cells/ml were then incubated with the peptides PFWT or PFmut or DMSO control vehicle for 48 or 72 h. After the incubation period, 400 μl of the cell suspensions were suspended in 3.6 ml MethoCult GF H4434 methylcellulose media containing cytokines (erythropoietin, G-CSF, GM-CSF, stem cell factor, IL-3 and IL-6) (Stem Cell Technologies) and transferred to 25 mm plates with grids. The cells were plated in triplicate and incubated for 2 weeks at 37° C. with 5% CO2 in a humidified incubator. After 2 weeks, the number of colonies (>50 cells) per plate was counted under an inverted light microscope as a measure of progenitor cell viability."}, "RS4;11": {"test_system": "RS4;11", "assay": "Annexin-V/PI binding assay (flow cytometry)", "type": "cell-based", "settings": "RS4;11, 50 μg/ml", "experimental": "(§1) To test the possibility that growth inhibition of t(4;11) leukemia cells exposed to PFWT is the result of apoptotic cell death, annexin-V labeling of the cell membrane of the leukemic cells examined in Example 5 was used to assess apoptosis as follows (Koopman, G., et al., Blood 1994 84: 1415–1420.). Annexin V binding assays were carried out using a Vibrant™ apoptosis kit (Molecular Probes). […] For annexin V-propidium iodide (PI) staining, cells were harvested, washed once with PBS and resuspended in 100 μl annexin binding buffer. 5 μl annexin V conjugated to Alexa Fluor 488 and 2 μl of 100 μg/ml PI were added to the cell suspension and incubated at room temperature for 15 minutes. The cells were then washed once in annexin binding buffer and resuspended in 400 μl annexin binding buffer. These samples were then analyzed by flow cytometry using Coulter benchtop flow cytometer. The cells were excited by a 488 nm wavelength laser beam and the emission was measured using a 530 nm filter for annexin V and a 575 nm filter for PI."}, "MOLT-4": {"test_system": "MOLT-4", "assay": "Annexin-V/PI binding assay (flow cytometry)", "type": "cell-based", "settings": "MOLT-4, 50 μg/ml", "experimental": "as §1"}, "MV4-11": {"test_system": "MV4-11", "assay": "Annexin-V/PI binding assay (flow cytometry)", "type": "cell-based", "settings": "MV4-11, 50 μg/ml", "experimental": "as §1"}},
  "note": "Entries after “also recorded” stand apart in the source; their conditions may differ.",
  "data": [
    {"smiles": "CC[C@H](C)[C@H](NC(=O)[C@H](CCC(N)=O)NC(=O)[C@@H](N)CCCNC(=N)N)C(=O)N[C@@H](CCCCN)C(=O)N[C@@H](Cc1c[nH]c2ccccc12)C(=O)N[C@@H](Cc1ccccc1)C(=O)N[C@@H](CCC(N)=O)C(=O)N[C@@H](CC(N)=O)C(=O)N[C@@H](CCCNC(=N)N)C(=O)N[C@@H](CCCNC(=N)N)C(=O)N[C@@H](CCSC)C(=O)N[C@@H](CCCCN)C(=O)N[C@@H](Cc1c[nH]c2ccccc12)C(=O)N[C@@H](CCCCN)C(=O)N[C@@H](CCCCN)C(=O)N[C@@H](CC(C)C)C(=O)N[C@@H](Cc1c[nH]c2ccccc12)C(=O)N[C@@H](CCC(=O)O)C(=O)N[C@@H](CCCCN)C(=O)N[C@@H](CO)C(=O)N[C@@H](CC(=O)O)C(=O)N[C@@H](CC(C)C)C(=O)N[C@@H](CC(=O)O)C(=O)N[C@@H](CC(C)C)C(=O)N[C@@H](CC(C)C)C(=O)N[C@@H](CO)C(=O)N[C@@H](CCCNC(=N)N)C(=O)N[C@H](C(=O)N1CCC[C@H]1C(=O)O)C(C)C", "note": "[PFmut]", "values": [
      {"measurement": "AF4-AF9 binding", "setting": "AF4-AF9 interaction; peptide 10 μg/ml, western blot", "value": "does not interfere with AF4-AF9 binding"},
      {"measurement": "AF4-AF9 binding", "setting": "AF4-AF9 interaction; peptide 100 μg/ml", "value": "binding was still apparent"},
      {"measurement": "colony forming potential (colonies >50 cells after 14 days)", "setting": "[1]", "value": "neither PFWT nor PFmut have any significant effect"},
      {"measurement": "% Total apoptotic cells", "setting": "RS4;11", "value": 7.22, "unit": "%"},
      {"measurement": "% early apoptotic cells", "setting": "RS4;11", "value": 1.36, "unit": "%"},
      {"measurement": "% Total apoptotic cells", "setting": "MOLT-4", "value": 6.64, "unit": "%"},
      {"measurement": "% early apoptotic cells", "setting": "MOLT-4", "value": 1.36, "unit": "%"},
      {"measurement": "% Total apoptotic cells", "setting": "MV4-11", "value": 23.16, "unit": "%"},
      {"measurement": "% early apoptotic cells", "setting": "MV4-11", "value": 8.26, "unit": "%"}
    ]},
    {"smiles": "CC[C@H](C)[C@H](NC(=O)[C@H](CCCCN)NC(=O)[C@@H](NC(=O)[C@H](Cc1c[nH]c2ccccc12)NC(=O)[C@H](CC(C)C)NC(=O)[C@H](CCCCN)NC(=O)[C@H](CCCCN)NC(=O)[C@H](Cc1c[nH]c2ccccc12)NC(=O)[C@H](CCCCN)NC(=O)[C@H](CCSC)NC(=O)[C@H](CCCNC(=N)N)NC(=O)[C@H](CCCNC(=N)N)NC(=O)[C@H](CC(N)=O)NC(=O)[C@H](CCC(N)=O)NC(=O)[C@H](Cc1ccccc1)NC(=O)[C@H](Cc1c[nH]c2ccccc12)NC(=O)[C@H](CCCCN)NC(=O)[C@@H](NC(=O)[C@H](CCC(N)=O)NC(=O)[C@@H](N)CCCNC(=N)N)[C@@H](C)CC)C(C)C)C(=O)N[C@@H](CC(=O)O)C(=O)N[C@@H](CC(C)C)C(=O)N[C@@H](CC(=O)O)C(=O)N[C@@H](CC(C)C)C(=O)N[C@@H](CC(C)C)C(=O)N[C@@H](CO)C(=O)N[C@@H](CCCNC(=N)N)C(=O)N[C@H](C(=O)N1CCC[C@H]1C(=O)O)C(C)C", "note": "[PFWT]", "values": [
      {"measurement": "AF4-AF9 binding", "setting": "AF4-AF9 interaction; peptide 10 μg/ml, western blot", "value": "completely blocks AF4-AF9 binding"},
      {"measurement": "colony forming potential (colonies >50 cells after 14 days)", "setting": "[1]", "value": "neither PFWT nor PFmut have any significant effect; also recorded: does not impair their colony forming potential"},
      {"measurement": "% Total apoptotic cells", "setting": "RS4;11", "value": 34.64, "unit": "%"},
      {"measurement": "% early apoptotic cells", "setting": "RS4;11", "value": 26.18, "unit": "%"},
      {"measurement": "% Total apoptotic cells", "setting": "MOLT-4", "value": 18.8, "unit": "%"},
      {"measurement": "% early apoptotic cells", "setting": "MOLT-4", "value": 11.64, "unit": "%"},
      {"measurement": "% Total apoptotic cells", "setting": "MV4-11", "value": 45.3, "unit": "%"},
      {"measurement": "% early apoptotic cells", "setting": "MV4-11", "value": 28.42, "unit": "%"}
    ]}
  ]
}
